For experiment [1], the target named is human α7 nAChRs transiently expressed in Xenopus laevis oocytes (Homo sapiens (Human), UniProt P36544). Put plainly: Oocyte electrophysiology screen (TEVC). In kind it is cell-based. Conditions: 0.01 mM test compound, peak current relative to 0.2 mM ACh. A digest of the protocol: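 Oocytes expressing human α7 were clamped at −80 mV by TEVC. After a 0.2 mM ACh control pulse, test compound was applied at 0.01 mM for 30 s. Agonist response is peak current as % of the ACh response, in triplicate.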

The target in experiment [2] is human 5-HT3 serotonin receptors (Homo sapiens (Human), UniProt P46098). Put plainly: [3H]BRL 43694 competition binding. Conditions: CHO cell membranes, [3H]BRL 43694, Cheng Prusoff; read-out: h-5HT3 Ki.

pKi: −log10 of the molar value. Structures can show the parent of a compound that is named as a salt.

Sequence of human 5-HT3 serotonin receptors (P46098 24-478): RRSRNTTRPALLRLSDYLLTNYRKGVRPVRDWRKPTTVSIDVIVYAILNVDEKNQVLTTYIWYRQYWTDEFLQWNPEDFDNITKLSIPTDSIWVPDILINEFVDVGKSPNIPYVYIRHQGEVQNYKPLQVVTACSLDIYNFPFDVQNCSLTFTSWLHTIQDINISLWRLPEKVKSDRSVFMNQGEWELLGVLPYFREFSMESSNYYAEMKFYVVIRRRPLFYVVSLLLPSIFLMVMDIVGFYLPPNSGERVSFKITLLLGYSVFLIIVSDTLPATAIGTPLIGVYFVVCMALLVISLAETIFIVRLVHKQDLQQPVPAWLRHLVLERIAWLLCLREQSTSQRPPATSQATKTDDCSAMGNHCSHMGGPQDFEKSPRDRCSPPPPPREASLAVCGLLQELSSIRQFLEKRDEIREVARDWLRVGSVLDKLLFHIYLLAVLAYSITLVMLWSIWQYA
Sequence of human α7 nAChRs transiently expressed in Xenopus laevis oocytes (P36544 23-502 limits assumed): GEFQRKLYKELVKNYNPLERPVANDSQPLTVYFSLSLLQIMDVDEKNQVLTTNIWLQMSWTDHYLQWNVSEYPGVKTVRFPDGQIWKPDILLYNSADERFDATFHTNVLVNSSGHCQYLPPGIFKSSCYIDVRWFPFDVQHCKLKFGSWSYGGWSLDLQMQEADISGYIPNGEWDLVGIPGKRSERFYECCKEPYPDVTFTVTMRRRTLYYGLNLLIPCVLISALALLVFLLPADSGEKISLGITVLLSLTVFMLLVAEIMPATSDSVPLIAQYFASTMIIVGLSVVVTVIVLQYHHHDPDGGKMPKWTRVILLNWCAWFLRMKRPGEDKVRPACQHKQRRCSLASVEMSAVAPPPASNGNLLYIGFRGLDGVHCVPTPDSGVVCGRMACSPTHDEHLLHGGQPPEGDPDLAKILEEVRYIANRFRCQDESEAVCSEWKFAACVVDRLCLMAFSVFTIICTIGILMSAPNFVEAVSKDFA

As to `CC1(C)[C@H](NC(=O)c2cc3c(cn2)OCCO3)C2CCN1CC2` [(R)-23, (R)—N-(2,2-dimethylquinuclidin-3-yl)-2,3-dihydro-[1,4]dioxino[2,3-c]pyridine-7-carboxamide hydrochloride], in experiment [1], the “% ACh @ 10 μM Oocyte” value was found to be 82 % ACh. For the same compound, the pKi in experiment [2] was less than 5.00.

Regarding `Cc1csc2ccc(C(=O)N[C@@H]3C4CCN(CC4)C3(C)C)cc12` [(R)-24, (R)—N-(2,2-dimethylquinuclidin-3-yl)-3-methylbenzo[b]thiophene-5-carboxamide hydrochloride], in experiment [1], the “% ACh @ 10 μM Oocyte” value was found to be 240 % ACh. Moreover, the pKi in experiment [2] was 6.09.

As for `CC1(C)[C@H](NC(=O)c2cc3cccnc3s2)C2CCN1CC2` [(R)-28, (R)—N-(2,2-dimethylquinuclidin-3-yl)thieno[2,3-b]pyridine-2-carboxamide hydrochloride], the “% ACh @ 10 μM Oocyte” value in experiment [1] is given as 321 % ACh. In experiment [2], the pKi was less than 5.00.

As for `CC1(C)[C@H](NC(=O)c2ccc3sccc3c2)C2CCN1CC2` [(R)-30, (R)—N-(2,2-dimethylquinuclidin-3-yl)benzo[b]thiophene-5-carboxamide hydrochloride], the “% ACh @ 10 μM Oocyte” value in experiment [1] was found to be 396 % ACh. Besides, the pKi in experiment [2] is 5.64.

On to `CC1(C)[C@H](NC(=O)c2cnc3occc3c2)C2CCN1CC2` [(R)-36, (R)—N-(2,2-dimethylquinuclidin-3-yl)furo[2,3-b]pyridine-5-carboxamide hydrochloride], for which, in experiment [1], the “% ACh @ 10 μM Oocyte” value was 1 % ACh. The pKi in experiment [2] is less than 5.00.

As for `CC1(C)[C@H](NC(=O)c2cc3ccsc3cn2)C2CCN1CC2` [(R)-43, (R)—N-(2,2-dimethylquinuclidin-3-yl)thieno[2,3-c]pyridine-5-carboxamide hydrochloride], the “% ACh @ 10 μM Oocyte” value in experiment [1] is reported as 951 % ACh. Besides, the negative-log Ki (pKi) in experiment [2] was 5.82.

With `CC1(C)[C@H](NC(=O)c2cc3ccc(Br)cc3s2)C2CCN1CC2` [(R)-46, (R)-6-bromo-N-(2,2-dimethylquinuclidin-3-yl)benzo[b]thiophene-2-carboxamide hydrochloride], the “% ACh @ 10 μM Oocyte” value in experiment [1] was 301 % ACh. In addition, the pKi in experiment [2] was less than 5.00.

In the case of `CC1(C)[C@H](NC(=O)c2cc3ccc(S(C)(=O)=O)cc3s2)C2CCN1CC2` [(R)-48, (R)—N-(2,2-dimethylquinuclidin-3-yl)-6-(methylsulfonyl)benzo[b]thiophene-2-carboxamide hydrochloride], the “% ACh @ 10 μM Oocyte” value in experiment [1] was 0 % ACh. In addition, the pKi in experiment [2] was less than 5.00.

As to `COc1ccc2cc(C(=O)N[C@@H]3C4CCN(CC4)C3(C)C)sc2c1F` [(R)-51, (R)—N-(2,2-dimethylquinuclidin-3-yl)-7-fluoro-6-methoxybenzo[b]thiophene-2-carboxamide hydrochloride], the “% ACh @ 10 μM Oocyte” value in experiment [1] turned out to be 326 % ACh. Also, the pKi in experiment [2] is less than 5.00.

Consider `Cc1ccc2cc(C(=O)N[C@@H]3C4CCN(CC4)C3(C)C)sc2c1Cl` [(R)-52, (R)-7-chloro-N-(2,2-dimethylquinuclidin-3-yl)-6-methylbenzo[b]thiophene-2-carboxamide hydrochloride], for which the “% ACh @ 10 μM Oocyte” value in experiment [1] came to 844 % ACh. In addition, in experiment [2], the pKi was 6.19.

For `Cc1ccc2cc(C(=O)N[C@@H]3C4CCN(CC4)C3(C)C)sc2c1F` [(R)-53, (R)—N-(2,2-dimethylquinuclidin-3-yl)-7-fluoro-6-methylbenzo[b]thiophene-2-carboxamide hydrochloride], the “% ACh @ 10 μM Oocyte” value in experiment [1] was 576 % ACh. The pKi in experiment [2] was 5.23.

`O=C(N[C@@H]1C2CCN(CC2)C12CC2)c1ccc2occc2c1` [(R)-59, (R)—N-(1′-azaspiro[cyclopropane-1,2′-bicyclo[2.2.2]octan]-3′-yl)benzofuran-5-carboxamide hydrochloride]: the “% ACh @ 10 μM Oocyte” value in experiment [1] is listed as 374 % ACh. Also, in experiment [2], the pKi was 5.17.

With `O=C(N[C@@H]1C2CCN(CC2)C12CC2)c1cc2ccoc2cn1` [(R)-75, (R)—N-(1′-azaspiro[cyclopropane-1,2′-bicyclo[2.2.2]octan]-3′-yl)furo[2,3-c]pyridine-5-carboxamide hydrochloride], the “% ACh @ 10 μM Oocyte” value in experiment [1] stood at 594 % ACh. Also, in experiment [2], the pKi is 5.48.

Regarding `Cc1csc2ccc(C(=O)N[C@@H]3C4CCN(CC4)C34CC4)cc12` [(R)-77, (R)-3-methyl-N-(1′-azaspiro[cyclopropane-1,2′-bicyclo[2.2.2]octan]-3′-yl)benzo[b]thiophene-5-carboxamide hydrochloride], in experiment [1], the “% ACh @ 10 μM Oocyte” value is 547 % ACh. In addition, the pKi in experiment [2] was 6.18.

Consider `Cc1csc2cc(C(=O)N[C@@H]3C4CCN(CC4)C34CC4)ccc12` [(R)-78, (R)-3-methyl-N-(1′-azaspiro[cyclopropane-1,2′-bicyclo[2.2.2]octan]-3′-yl)benzo[b]thiophene-6-carboxamide hydrochloride], for which the “% ACh @ 10 μM Oocyte” value in experiment [1] was 31 % ACh. For the same compound, the pKi in experiment [2] was 5.68.

Regarding `O=C(N[C@@H]1C2CCN(CC2)C12CC2)c1ccc2cc[nH]c2c1` [(R)-79, (R)—N-(1′-azaspiro[cyclopropane-1,2′-bicyclo[2.2.2]octan]-3′-yl)-1H-indole-6-carboxamide], the “% ACh @ 10 μM Oocyte” value in experiment [1] came to 758 % ACh. The pKi in experiment [2] was 6.12.

In the case of `O=C(N[C@@H]1C2CCN(CC2)C12CC2)c1ccc2sccc2c1` [(R)-83, (R)—N-(1′-azaspiro[cyclopropane-1,2′-bicyclo[2.2.2]octan]-3′-yl)benzo[b]thiophene-5-carboxamide hydrochloride], in experiment [1], the “% ACh @ 10 μM Oocyte” value came to 558 % ACh. The pKi in experiment [2] was 5.62.

Take `O=C(N[C@@H]1C2CCN(CC2)C12CC2)c1ccc2ccoc2c1` [(R)-84, (R)—N-(1′-azaspiro[cyclopropane-1,2′-bicyclo[2.2.2]octan]-3′-yl)benzofuran-6-carboxamide hydrochloride]: the “% ACh @ 10 μM Oocyte” value in experiment [1] is reported as 341 % ACh. Besides, the pKi in experiment [2] was 5.33.

Consider `Cc1nc2cc(C(=O)N[C@@H]3C4CCN(CC4)C34CC4)ccc2o1` [(R)-85, (R)-2-methyl-N-(1′-azaspiro[cyclopropane-1,2′-bicyclo[2.2.2]octan]-3′-yl)benzo[d]oxazole-5-carboxamide], for which the “% ACh @ 10 μM Oocyte” value in experiment [1] came out at 188 % ACh. Also, the negative logarithm of the Ki (pKi) in experiment [2] is less than 5.00.

Turning to `Cc1nc2ccc(C(=O)N[C@@H]3C4CCN(CC4)C34CC4)cc2o1` [(R)-86, (R)-2-methyl-N-(1′-azaspiro[cyclopropane-1,2′-bicyclo[2.2.2]octan]-3′-yl)benzo[d]oxazole-6-carboxamide], the “% ACh @ 10 μM Oocyte” value in experiment [1] is 67 % ACh. Also, the pKi in experiment [2] was less than 5.00.

Consider `Cc1cc2cc(C(=O)N[C@@H]3C4CCN(CC4)C34CC4)ccc2o1` [(R)-91, (R)-2-methyl-N-(1′-azaspiro[cyclopropane-1,2′-bicyclo[2.2.2]octan]-3′-yl)benzofuran-5-carboxamide hydrochloride], for which the “% ACh @ 10 μM Oocyte” value in experiment [1] turned out to be 653 % ACh. Further, in experiment [2], the negative logarithm of the Ki (pKi) is less than 5.00.

With `O=C(N[C@@H]1C2CCN(CC2)C12CC2)c1ccc2oc(Cl)cc2c1` [(R)-92, (R)-2-chloro-N-(1′-azaspiro[cyclopropane-1,2′-bicyclo[2.2.2]octan]-3′-yl)benzofuran-5-carboxamide hydrochloride], the “% ACh @ 10 μM Oocyte” value in experiment [1] came out at 532 % ACh. Also, the pKi in experiment [2] was less than 5.00.

As for `O=C(N[C@@H]1C2CCN(CC2)C12CC2)c1ccc2occ(Cl)c2c1` [(R)-94, (R)-3-chloro-N-(1′-azaspiro[cyclopropane-1,2′-bicyclo[2.2.2]octan]-3′-yl)benzofuran-5-carboxamide hydrochloride], the “% ACh @ 10 μM Oocyte” value in experiment [1] amounted to 812 % ACh. In addition, the pKi in experiment [2] is 5.80.

As to `Cn1cnc2cc(C(=O)N[C@@H]3C4CCN(CC4)C34CC4)ccc21` [(R)-95, (R)-1-methyl-N-(1′-azaspiro[cyclopropane-1,2′-bicyclo[2.2.2]octan]-3′-yl)-1H-benzo[d]imidazole-5-carboxamide hydrochloride], the “% ACh @ 10 μM Oocyte” value in experiment [1] is 0 % ACh. Further, the pKi in experiment [2] is less than 5.00.

Consider `O=C(N[C@@H]1C2CCN(CC2)C12CC2)c1cc2ccsc2cn1` [(R)-97, (R)—N-(1′-azaspiro[cyclopropane-1,2′-bicyclo[2.2.2]octan]-3′-yl)thieno[2,3-c]pyridine-5-carboxamide hydrochloride], for which the “% ACh @ 10 μM Oocyte” value in experiment [1] was determined as 816 % ACh. Further, the pKi in experiment [2] was 6.37.

As for `O=C(N[C@@H]1C2CCN(CC2)C12CC2)c1cc2ccc(N3CCOCC3)cc2s1` [(R)-99, (R)-6-morpholino-N-(1′-azaspiro[cyclopropane-1,2′-bicyclo[2.2.2]octan]-3′-yl)benzo[b]thiophene-2-carboxamide hydrochloride], the “% ACh @ 10 μM Oocyte” value in experiment [1] is listed as 1 % ACh. Besides, the pKi in experiment [2] was less than 5.00.

On to `O=C(N[C@@H]1C2CCN(CC2)C12CC2)c1cc2ccc(Br)cc2s1` [(R)-101, (R)-6-bromo-N-(1′-azaspiro[cyclopropane-1,2′-bicyclo[2.2.2]octan]-3′-yl)benzo[b]thiophene-2-carboxamide hydrochloride], for which the “% ACh @ 10 μM Oocyte” value in experiment [1] is on record as 412 % ACh. Also, the pKi in experiment [2] is less than 5.00.

Consider `O=C(N[C@@H]1C2CCN(CC2)C12CC2)c1cc2ccc(C3CCOCC3)cc2s1` [(R)-105, (R)—N-(1′-azaspiro[cyclopropane-1,2′-bicyclo[2.2.2]octan]-3′-yl)-6-(tetrahydro-2H-pyran-4-yl)benzo[b]thiophene-2-carboxamide hydrochloride], for which, in experiment [1], the “% ACh @ 10 μM Oocyte” value was 2 % ACh. Besides, the pKi in experiment [2] is less than 5.00.

Take `Cc1ccc2cc(C(=O)N[C@@H]3C4CCN(CC4)C34CC4)sc2c1F` [(R)-106, (R)-7-fluoro-6-methyl-N-(1′-azaspiro[cyclopropane-1,2′-bicyclo[2.2.2]octan]-3′-yl)benzo[b]thiophene-2-carboxamide hydrochloride]: the “% ACh @ 10 μM Oocyte” value in experiment [1] is 572 % ACh. Moreover, in experiment [2], the pKi is less than 5.00.
